Reference: patent US10131652B2, “Pyrimidinyloxy benzene derivatives as herbicides” (E. I. DU PONT DE NEMOURS AND COMPANY, priority 2014, dated 2018)

Assays:
Format in all cases: in vivo
[1] = system: Italian ryegrass (Lolium multiflorum); assay: Test B pre-/postemergence plant response
Description: (§1) Seeds of plant species selected from bamyardgrass (Echinochloa crus-galli), kochia (Kochia scoparia), ragweed (common ragweed, Ambrosia elatior), Italian ryegrass (Lolium multiflorum), large (Lg) crabgrass (Digitaria sanguinalis), giant foxtail (Setaria faberii), momingglory (Ipomoea spp.), pigweed (Amaranthus retroflexus), velvetleaf (Abutilon theophrasti), wheat (Triticum aestivum), and corn (Zea mays) were planted into a blend of loam soil and sand and treated preemergence with a directed soil spray using test chemicals formulated in a non-phytotoxic solvent mixture which included a surfactant. At the same time, plants selected from these crop and weed species and also blackgrass (Alopecurus myosuroides), and galium (catchweed bedstraw, Galium aparine) were planted in pots containing the same blend of loam soil and sand and treated with postemergence applications of test chemicals formulated in the same manner. Plants ranged in height from 2 to 10 cm and were in the one- to two-leaf stage for the postemergence treatment. Treated plants and untreated controls were maintained in a greenhouse for approximately 10 days, after which time all treated plants were compared to untreated controls and visually evaluated for injury. Plant response ratings, summarized in Table B, are based on a 0 to 100 scale where 0 is no effect and 100 is complete control. A dash (-) response means no test result.

[2] = system: barnyardgrass (Echinochloa crus-galli); assay: Test B pre-/postemergence plant response
Description: as §1

corn (Zea mays) = assay: Test B pre-/postemergence plant response
Description: as §1

[3] = system: giant foxtail (Setaria faberii); assay: Test B pre-/postemergence plant response
Description: as §1

kochia (Kochia scoparia) = assay: Test B pre-/postemergence plant response
Description: as §1

[4] = system: pigweed (Amaranthus retroflexus); assay: Test B pre-/postemergence plant response
Description: as §1

[5] = system: ragweed (common ragweed, Ambrosia elatior); assay: Test B pre-/postemergence plant response
Description: as §1

[6] = system: wheat (Triticum aestivum); assay: Test B pre-/postemergence plant response
Description: as §1

[7] = system: blackgrass (Alopecurus myosuroides); assay: Test B postemergence plant response
How it was run: (§2)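 Seedlings in a loam soil and sand mix received a postemergence application of the formulated chemicals at the one- to two-leaf stage (2–10 cm tall). They were kept in a greenhouse for roughly 10 days, then scored for injury relative to untreated plants, 0 meaning no effect and 100 complete control.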

[8] = system: galium (catchweed bedstraw, Galium aparine); assay: Test B postemergence plant response
How it was run: as §2

[9] = system: barnyardgrass (Echinochloa crus-galli); assay: Test C flooded paddy test plant response; conditions: Flood, 250 g ai/ha; scale of 0 to 100 where 0 is no effect and 100 is complete control; 13 to 15 days
How it was run: (§3)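 Two-leaf stage → flood to 3 cm → compound into water → hold depth, greenhouse 13–15 d → visual score vs controls (0 none, 100 complete control).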

[10] = system: ducksalad (Heteranthera limosa); assay: Test C flooded paddy test plant response; conditions: Flood, 250 g ai/ha; scale of 0 to 100 where 0 is no effect and 100 is complete control; 13 to 15 days
How it was run: as §3

rice (Oryza sativa) = assay: Test C flooded paddy test plant response; conditions: Flood, 250 g ai/ha; scale of 0 to 100 where 0 is no effect and 100 is complete control; 13 to 15 days
How it was run: as §3

[11] = system: small-flower umbrella sedge (Cyperus difformis); assay: Test C flooded paddy test plant response; conditions: Flood, 250 g ai/ha; scale of 0 to 100 where 0 is no effect and 100 is complete control; 13 to 15 days
How it was run: as §3

[12] = 31 g ai/ha, Preemergence, 0 to 100 scale where 0 is no effect and 100 is complete control
[13] = 125 g ai/ha, postemergence, 0 to 100 scale, 0 no effect, 100 complete control
[14] = 31 g ai/ha, Postemergence, 0 to 100 scale, 0 no effect, 100 complete control
[15] = Preemergence, 125 g ai/ha, 0 to 100 scale where 0 is no effect and 100 is complete control
[16] = Postemergence, 500 g ai/ha, 0 to 100 scale (0 no effect, 100 complete control)
[17] = Preemergence, 500 g ai/ha, 0 to 100 scale where 0 is no effect and 100 is complete control
[18] = Preemergence, 125 g ai/ha, 0 to 100 scale (0 no effect, 100 complete control)

Compound | Plant response rating, Ryegrass, Italian [1, 12] | Plant response rating, Ryegrass, Italian [1, 13] | Plant response rating, Barnyardgrass [2, 14] | Plant response rating, Barnyardgrass [2, 12] | Plant response rating, Barnyardgrass [2, 13] | Plant response rating, Corn (corn (Zea mays); [14]) | Plant response rating, Corn (corn (Zea mays); [13]) | Plant response rating, Foxtail, Giant [3, 14] | Plant response rating, Foxtail, Giant [3, 12] | Plant response rating, Foxtail, Giant [3, 13] | Plant response rating, Kochia (kochia (Kochia scoparia); [13]) | Plant response rating, Pigweed [4, 13] | Plant response rating, Ragweed [5, 13] | Plant response rating, Wheat [6, 13] | Plant response rating, Blackgrass [7, 13] | Plant response rating, Galium [8, 13] | Barnyardgrass plant response rating [9] | Ducksalad plant response rating [10] | Rice plant response rating (rice (Oryza sativa)) | Sedge, Umbrella plant response rating [11] | other results
Clc1cnc(Oc2ccccc2-c2nnc(C3CC3)o2)nc1 [Compound 122] | 0 | 0 | 0 | 0 | 0 | 0 | 0 | 0 | 0 | 0 | 20 | 20 | 10 | 20 | 0 | 20 | 0 | 0 | 0 | 0 | Plant response rating, Barnyardgrass [2, 15]: 0; Plant response rating, Foxtail, Giant [3, 15]: 0; Plant response rating, Kochia (kochia (Kochia scoparia); [12]): 0; Plant response rating, Kochia (kochia (Kochia scoparia); [15]): 10; Plant response rating, Pigweed [4, 12]: 10; Plant response rating, Ragweed [5, 12]: 0; Plant response rating, Blackgrass [7, 14]: 0
CC(C)n1ncnc1-c1ccccc1Oc1ncc(Cl)cn1 [Compound 123] | – | 0 | – | – | 0 | – | 0 | – | – | 0 | 0 | 0 | 0 | 0 | 0 | 0 | 0 | 0 | 0 | 30 | Plant response rating, Ryegrass, Italian [1, 16]: 0; Plant response rating, Ryegrass, Italian [1, 17]: 0; Plant response rating, Barnyardgrass [2, 16]: 0; Plant response rating, Barnyardgrass [2, 15]: 0; Plant response rating, Barnyardgrass [2, 17]: 0; Plant response rating, Corn (corn (Zea mays); [16]): 0; Plant response rating, Foxtail, Giant [3, 16]: 0; Plant response rating, Foxtail, Giant [3, 15]: 0; Plant response rating, Foxtail, Giant [3, 17]: 0; Plant response rating, Kochia (kochia (Kochia scoparia); [16]): 0; Plant response rating, Kochia (kochia (Kochia scoparia); [15]): 0; Plant response rating, Kochia (kochia (Kochia scoparia); [17]): 0; Plant response rating, Pigweed [4, 16]: 0; Plant response rating, Pigweed [4, 17]: 0; Plant response rating, Ragweed [5, 16]: 0; Plant response rating, Ragweed [5, 17]: 0; Plant response rating, Wheat [6, 16]: 0; Plant response rating, Blackgrass [7, 16]: 0; Plant response rating, Galium [8, 16]: 0
Fc1ccc(-c2cc(C(F)(F)F)no2)c(Oc2ncc(Cl)cn2)c1 [Compound 124] | 0 | 0 | 0 | 0 | 20 | 0 | 10 | 0 | 20 | 20 | 80 | 90 | 20 | 0 | 30 | 100 | 0 | 80 | 0 | 85 | Ryegrass, Italian plant response rating [1, 18]: 10; Barnyardgrass plant response rating [2, 18]: 30; Foxtail, Giant plant response rating [3, 18]: 100; Plant response rating, Kochia (kochia (Kochia scoparia); [12]): 10; Kochia plant response rating (kochia (Kochia scoparia); [18]): 60; Plant response rating, Pigweed [4, 12]: 40; Pigweed plant response rating [4, 18]: 100; Plant response rating, Ragweed [5, 12]: 0; Ragweed plant response rating [5, 18]: 10; Plant response rating, Blackgrass [7, 14]: 0
Fc1ccc(-c2cc(C(F)(F)F)no2)c(Oc2ncc(Br)cn2)c1 [Compound 125] | 0 | 10 | 10 | 0 | 30 | 0 | 10 | 0 | 10 | 20 | 80 | 90 | 20 | 0 | 30 | 100 | 0 | 80 | 0 | 90 | Ryegrass, Italian plant response rating [1, 18]: 10; Barnyardgrass plant response rating [2, 18]: 50; Foxtail, Giant plant response rating [3, 18]: 90; Plant response rating, Kochia (kochia (Kochia scoparia); [12]): 0; Kochia plant response rating (kochia (Kochia scoparia); [18]): 40; Plant response rating, Pigweed [4, 12]: 0; Pigweed plant response rating [4, 18]: 80; Plant response rating, Ragweed [5, 12]: 0; Ragweed plant response rating [5, 18]: 0; Plant response rating, Blackgrass [7, 14]: 10
FC(F)(F)c1cc(-c2c(Cl)cccc2Oc2ncc(Cl)cn2)on1 [Compound 126] | 40 | 100 | 80 | 90 | 100 | 20 | 70 | 60 | 100 | 90 | 90 | 100 | 40 | 40 | 90 | 100 | 95 | 100 | 75 | 100 | Ryegrass, Italian plant response rating [1, 18]: 100; Barnyardgrass plant response rating [2, 18]: 100; Foxtail, Giant plant response rating [3, 18]: 100; Plant response rating, Kochia (kochia (Kochia scoparia); [12]): 80; Kochia plant response rating (kochia (Kochia scoparia); [18]): 90; Plant response rating, Pigweed [4, 12]: 100; Pigweed plant response rating [4, 18]: 100; Plant response rating, Ragweed [5, 12]: 10; Ragweed plant response rating [5, 18]: 10; Plant response rating, Blackgrass [7, 14]: 60
FC(F)(F)c1cc(-c2c(Cl)cccc2Oc2ncc(Br)cn2)on1 [Compound 127] | 30 | 90 | 30 | 70 | 100 | 20 | 50 | 50 | 100 | 90 | 90 | 100 | 50 | 20 | 90 | 100 | 50 | 100 | 60 | 100 | Ryegrass, Italian plant response rating [1, 18]: 90; Barnyardgrass plant response rating [2, 18]: 90; Foxtail, Giant plant response rating [3, 18]: 100; Plant response rating, Kochia (kochia (Kochia scoparia); [12]): 80; Kochia plant response rating (kochia (Kochia scoparia); [18]): 90; Plant response rating, Pigweed [4, 12]: 100; Pigweed plant response rating [4, 18]: 100; Plant response rating, Ragweed [5, 12]: 10; Ragweed plant response rating [5, 18]: 30; Plant response rating, Blackgrass [7, 14]: 30
